Measured values as given in BigSolDB 2.1.

COC(=O)c1ccnc(N)c1
solubility (mole fraction) (in DMF, 278.15 K): 0.00726
solubility (mole fraction) (in DMF, 283.15 K): 0.0087
solubility (mole fraction) (in DMF, 288.15 K): 0.0105
solubility (mole fraction) (in DMF, 293.15 K): 0.0126
solubility (mole fraction) (in DMF, 298.15 K): 0.0152
solubility (mole fraction) (in DMF, 303.15 K): 0.0183
solubility (mole fraction) (in DMF, 308.15 K): 0.0216
solubility (mole fraction) (in DMF, 313.15 K): 0.0249
solubility (mole fraction) (in DMF, 318.15 K): 0.0292
solubility (mole fraction) (in DMF, 323.15 K): 0.0339
solubility (mole fraction) (in acetonitrile, 278.15 K): 0.00539
solubility (mole fraction) (in acetonitrile, 283.15 K): 0.00665
solubility (mole fraction) (in acetonitrile, 288.15 K): 0.00838
solubility (mole fraction) (in acetonitrile, 293.15 K): 0.0104
solubility (mole fraction) (in acetonitrile, 298.15 K): 0.0127
solubility (mole fraction) (in acetonitrile, 303.15 K): 0.015
solubility (mole fraction) (in acetonitrile, 308.15 K): 0.0177
solubility (mole fraction) (in acetonitrile, 313.15 K): 0.0206
solubility (mole fraction) (in acetonitrile, 318.15 K): 0.0241
solubility (mole fraction) (in acetonitrile, 323.15 K): 0.0277
solubility (mole fraction) (in ethanol, 278.15 K): 0.00321
solubility (mole fraction) (in ethanol, 283.15 K): 0.00385
solubility (mole fraction) (in ethanol, 288.15 K): 0.0047
solubility (mole fraction) (in ethanol, 293.15 K): 0.00577
solubility (mole fraction) (in ethanol, 298.15 K): 0.00694
solubility (mole fraction) (in ethanol, 303.15 K): 0.00821
solubility (mole fraction) (in ethanol, 308.15 K): 0.00976
solubility (mole fraction) (in ethanol, 313.15 K): 0.0114
solubility (mole fraction) (in ethanol, 318.15 K): 0.0132
solubility (mole fraction) (in ethanol, 323.15 K): 0.0154
solubility (mole fraction) (in isopropanol, 278.15 K): 0.00385
solubility (mole fraction) (in isopropanol, 283.15 K): 0.0048
solubility (mole fraction) (in isopropanol, 288.15 K): 0.00601
solubility (mole fraction) (in isopropanol, 293.15 K): 0.00728
solubility (mole fraction) (in isopropanol, 298.15 K): 0.00889
solubility (mole fraction) (in isopropanol, 303.15 K): 0.0104
solubility (mole fraction) (in isopropanol, 308.15 K): 0.0122
solubility (mole fraction) (in isopropanol, 313.15 K): 0.0141
solubility (mole fraction) (in isopropanol, 318.15 K): 0.0163
solubility (mole fraction) (in isopropanol, 323.15 K): 0.019
solubility (mole fraction) (in methanol, 278.15 K): 0.00173
solubility (mole fraction) (in methanol, 283.15 K): 0.0021
solubility (mole fraction) (in methanol, 288.15 K): 0.00255
solubility (mole fraction) (in methanol, 293.15 K): 0.00312
solubility (mole fraction) (in methanol, 298.15 K): 0.00379
solubility (mole fraction) (in methanol, 303.15 K): 0.00453
solubility (mole fraction) (in methanol, 308.15 K): 0.00557
solubility (mole fraction) (in methanol, 313.15 K): 0.00665
solubility (mole fraction) (in methanol, 318.15 K): 0.00798
solubility (mole fraction) (in methanol, 323.15 K): 0.00946
solubility (mole fraction) (in n-propanol, 278.15 K): 0.00422
solubility (mole fraction) (in n-propanol, 283.15 K): 0.00528
solubility (mole fraction) (in n-propanol, 288.15 K): 0.00655
solubility (mole fraction) (in n-propanol, 293.15 K): 0.00813
solubility (mole fraction) (in n-propanol, 298.15 K): 0.00977
solubility (mole fraction) (in n-propanol, 303.15 K): 0.0117
solubility (mole fraction) (in n-propanol, 308.15 K): 0.0137
solubility (mole fraction) (in n-propanol, 313.15 K): 0.0163
solubility (mole fraction) (in n-propanol, 318.15 K): 0.019
solubility (mole fraction) (in n-propanol, 323.15 K): 0.0217
solubility (mole fraction) (in toluene, 278.15 K): 0.00824
solubility (mole fraction) (in toluene, 283.15 K): 0.00987
solubility (mole fraction) (in toluene, 288.15 K): 0.0122
solubility (mole fraction) (in toluene, 293.15 K): 0.0147
solubility (mole fraction) (in toluene, 298.15 K): 0.0177
solubility (mole fraction) (in toluene, 303.15 K): 0.0208
solubility (mole fraction) (in toluene, 308.15 K): 0.0243
solubility (mole fraction) (in toluene, 313.15 K): 0.0282
solubility (mole fraction) (in toluene, 318.15 K): 0.0327
solubility (mole fraction) (in toluene, 323.15 K): 0.0377
solubility (mole fraction) (in water, 278.15 K): 0.000935
solubility (mole fraction) (in water, 283.15 K): 0.00117
solubility (mole fraction) (in water, 288.15 K): 0.00142
solubility (mole fraction) (in water, 293.15 K): 0.00178
solubility (mole fraction) (in water, 298.15 K): 0.00217
solubility (mole fraction) (in water, 303.15 K): 0.00258
solubility (mole fraction) (in water, 308.15 K): 0.00302
solubility (mole fraction) (in water, 313.15 K): 0.00356
solubility (mole fraction) (in water, 318.15 K): 0.00416
solubility (mole fraction) (in water, 323.15 K): 0.00489
